Measured values from US20160060288A1, “Ester derivatives of 7-alpha-[9-(4,4,5,5,5-pentafluoropentylsulfinyl)nonyl)-estra-1,3,5(10)-triene-3,17beta-diol having anticancer activity and preparation method thereof” (XI'ANLIBANG PHARMACEUTICAL TECHNOLOGY CO., LTD., priority 2013, published 2016).
≈ marks a conversion by molar mass, not a printed value. Blank lines part the entries; values can stand above or below the compound they belong to.

Columns and labels:
[1] = physchem; conditions: thermodynamic from solid
From the text: (§1) Fulvestrant and ester derivatives of fulvestrant were accurately weighed to an appropriate amount respectively. Their solubilities (in mg/mL) in different oils and solvents were compared according to General Notice in Section 2 of Chinese Pharmacopoeia (2010).

[2] = system: human breast cancer MCF-7; assay: Growth inhibition of human breast cancer MCF-7 xenografted in nude mice; type: in vivo, BALB/c female nude mice; conditions: oiling agent, 100 mg/kg s.c. once, 28 days after administration; for Tumor weight: X ± SD; for Tumor inhibition rate: from tumor weight vs control
From the text: Test drugs: fulvestrant, Compounds II and X are dispersed in oil and sterilized to be prepared as oiling agents respectively.

[3] = Solubility experiments of fulvestrant and ester derivatives in different oils and solvents; conditions: thermodynamic from solid
From the text: as §1

[4] = cited from earlier work
[5] = Body weight of MCF-7 xenografted nude mice; conditions: oiling agent, 100 mg/kg s.c. once, 28 days after administration, X ± SD
Method: Experimental animals and grouping thereof, source, germline and strain: BALB/c female nude mice, provided by Laboratory Animal Research Center of Academy of Military Medical Sciences of China (Laboratory animal production license: SCXK (Military) 2007-004), day-old: 35-40 days; body weight: 18-24 g.
Establishment of model and tumor measuring method: human breast cancer MCF-7 cell lines in logarithmic growth phase were prepared into a cell suspension of 5×10^8/mL under sterile condition, with 0.1 mL of which being inoculated to nude mice at their right armpits subcutaneously. Xenografted tumors of nude mice were measured for diameter with vernier caliper, and animals were randomly grouped when the tumors grew to 100-300 mm^3. The administration volume to each of the mice was 0.2 mL/20 g by subcutaneous injection at head and neck region. 28 days after administration, the mice were sacrificed and the tumors were stripped by surgery and weighed.

[6] = oil or lipid, Solubility in soybean oil
[7] = organic solvent or mixture, Solubility in propylene glycol

SMILES: CC(CCC(C(=O)OC1CCC2C3C(CCCCCCCCC[S+]([O-])CCCC(F)(F)C(F)(F)F)Cc4cc(O)ccc4C3CCC12C)C(C)CC(C)(C)C)CC(C)(C)C (centres unmarked) [Compound IV]
- solubility [1, 6]: 28000 µg/mL (≈ 32.1 mM)
- solubility [1, 7]: 7100 µg/mL (≈ 8.13 mM)

SMILES: CCCCCCCCCCCCCCCC(=O)OC1CCC2C3C(CCCCCCCCC[S+]([O-])CCCC(F)(F)C(F)(F)F)Cc4cc(O)ccc4C3CCC12C (centres unmarked) [Compound II]
- solubility ([1]; oil or lipid, Solubility in castor oil): > 100000 µg/mL
- solubility ([1]; oil or lipid, Solubility in medium-chain oil): > 10000 µg/mL
- solubility [1, 6]: > 100000 µg/mL
- solubility ([1]; organic solvent or mixture, Solubility in PEG 400): 2900 µg/mL (≈ 3.43 mM)
- solubility [1, 7]: 10200 µg/mL (≈ 12.1 mM)
- Tumor weight [2]: 0.426 ± 0.306 g
- Tumor inhibition rate [2]: 64.90%

SMILES: CCCCCCCCCCC(=O)OC1CCC2C3C(CCCCCCCCC[S+]([O-])CCCC(F)(F)C(F)(F)F)Cc4cc(O)ccc4C3CCC12C (centres unmarked) [Compound I]
- solubility [1, 6]: 255000 µg/mL (≈ 329 mM)
- solubility [1, 7]: 2900 µg/mL (≈ 3.74 mM)

SMILES: CCCCCCCC/C=C/C(=O)OC1CCC2C3C(CCCCCCCCC[S+]([O-])CCCC(F)(F)C(F)(F)F)Cc4cc(OC(=O)CCC)ccc4C3CCC12C (centres unmarked) [Compound X]
- Tumor weight [2]: 0.402 ± 0.711 g
- Tumor inhibition rate [2]: 65.93%

SMILES: CCCCCCCC/C=C/C(=O)OC1CCC2C3C(CCCCCCCCC[S+]([O-])CCCC(F)(F)C(F)(F)F)Cc4cc(O)ccc4C3CCC12C (centres unmarked) [Compound V]
- solubility [1, 6]: 122000 µg/mL (≈ 158 mM)
- solubility [1, 7]: 12200 µg/mL (≈ 15.8 mM)

- solubility ([3]; PEG 400, organic solvent or mixture, Solubility in PEG 400, PEG 400): 6900 µg/mL (≈ 11.4 mM)
- solubility ([3]; propylene glycol, organic solvent or mixture, Solubility in propylene glycol): 10200 µg/mL (≈ 16.8 mM)
- solubility ([3]; soybean oil, oil or lipid, Solubility in soybean oil): 5000 µg/mL (≈ 8.24 mM)
SMILES: CC12CCC3c4ccc(O)cc4CC(CCCCCCCCC[S+]([O-])CCCC(F)(F)C(F)(F)F)C3C1CCC2O (stereo not drawn) [Fulvestrant, 7-α-[9-(4,4,5,5,5-pentafluoropentylsulfinyl)nonyl]-estra-1,3,5(10)-triene-3,17β-diol]
- Solubility in Migloyl 810 ([4]; Migloyl 810, 25° C.): 3060 µg/mL (≈ 5.04 mM)
- Solubility in Migloyl 812 ([4]; Migloyl 812, 25° C.): 2720 µg/mL (≈ 4.48 mM)
- Solubility in Span 85 ([4]; Span 85, 25° C.): 3790 µg/mL (≈ 6.25 mM)
- Solubility in benzyl alcohol ([4]; benzyl alcohol, 25° C.): > 200000 µg/mL
- Solubility in benzyl benzoate ([4]; benzyl benzoate, 25° C.): 6150 µg/mL (≈ 10.1 mM)
- Solubility in castor oil ([4]; castor oil, 25° C.): 20000 µg/mL (≈ 33 mM)
- Solubility in castor oil (reported value) ([4]; castor oil, * denotes reported value): 20* mg/mL
- Solubility in ethanol ([4]; ethanol, 25° C.): > 200000 µg/mL
- Solubility in ethyl oleate ([4]; ethyl oleate, 25° C.): 1250 µg/mL (≈ 2.06 mM)
- Solubility in isopropyl myristate ([4]; isopropyl myristate, 25° C.): 800 µg/mL (≈ 1.32 mM)
- Solubility in peanut oil ([4]; peanut oil, 25° C.): 450 µg/mL (≈ 0.742 mM)
- Solubility in sesame oil ([4]; sesame oil, 25° C.): 580 µg/mL (≈ 0.956 mM)
- Solubility in water ([4]; water, 25° C.): 1 µg/mL (≈ 0.00165 mM)
- Water solubility ([4]; water): about 10 ng/mL
- Tumor weight [2]: 0.392 ± 0.443 g
- Tumor inhibition rate [2]: 66.78%
- Final body weight [5]: 15.800 ± 1.166 g
